Measured values published in US6369109B1, “Betulinic acid and derivatives thereof useful for the treatment of neuroectodermal tumor” (Deutsches Krebsforschungszentrum Stiftung des Offentlichen …, priority 1998, dated 2002).

Columns and labels:
[1] = system: CD95-resistant SH-EP^CD95R cells; assay: Specific apoptosis in resistant cells, FACS of propidium iodide-stained nuclei; format: cell-based, human; conditions: 10 μg/ml betulinic acid or 0.5 μg/ml doxorubicin, 72 h; FIG. 6A
From the text: (§1) Neuroblastoma (SH-EP, IMR-32, Kelly, and LAN-5, kindly provided by Professor M. Schwab, German Cancer Research Center, Heidelberg, Germany), medulloblastoma cells (Daoy, kindly provided by Dr. T. Pietsch, Department of Neuropathology, University of Bonn Medical Center, Bonn, Germany), Ewing's sarcoma cells (A17/95, kindly provided by Dr. U. Anderer, Institute of Pathology, Humboldt University, Berlin, Germany), melanoma (A-378), breast carcinoma (MCF-71), colon carcinoma (HT-29), small cell lung carcinoma (H-126), renal cell carcinoma (KTCTL-26, kindly provided by H. Lörke, German Cancer Research Center, Heidelberg, Germany) and T-cell leukemia (CEM) cells were cultured in RPMI 1640 (Life Technologies, Inc., Eggenstein, Germany) supplemented with 10% heat-inactivated fetal bovin serum (FCS) from Conco. […]
(§2) Quantification of DNA fragmentation was performed by FACS analysis of propidium iodide stained nuclei as described in Nicoletti et al, 1991, J. Immunol. […] Cells were analyzed for DNA content by flow. cytometry (FACScan, Becton Dickinson, Heidelberg, Germany) using CELLQuest software. […] Cells were analyzed by flow cytometry (FAC-Scan. Becton Dickinson) using CELLQuest software.
(§3) SH-EP neuroblastoma cells (▪). […] Specific apoptosis was determined and calculated as described in the legend to FIG. 1A. […]

[2] = system: doxorubicin-resistant SH-EP^DoxoR cells; assay: as above; format: cell-based, human; conditions: 10 μg/ml betulinic acid or 0.5 μg/ml doxorubicin, 72 h; FIG. 6A
From the text: as §1, §2, §3

**Q.** For `COc1cccc2c1C(=O)c1c(O)c3c(c(O)c1C2=O)C[C@@](O)(C(=O)CO)C[C@@H]3O[C@H]1C[C@H](N)[C@H](O)[C@H](C)O1` [doxorubicin], which “response of anti-CD95-resistant cells (specific apoptosis)” value [1] is on record?
**A.** The value was “partially resistant to doxorubicin”.

**Q.** And the “response of doxorubicin-resistant cells (specific apoptosis)” value [2]?
**A.** Its value is “partially resistant to doxorubicin”.
